Series [1] is described as follows: TNS (pKa) assay, apparent LNP pKa. It is filed as physicochemical. The settings on record: Example 5 LNP lipid:DOPE:Plant Cholesterol:DMPE-PEG2k 35:16:46.5:2.5, FLUC/EPO 1:1 mRNA, N:P 6:1. On the procedure:
(protocol adapted from: A Novel Amino Lipid Series for mRNA Delivery: Improved Endosomal Escape and Sustained Pharmacology and Safety in Non-human Primates, Sabnis, Staci et al., Molecular Therapy, Volume 26, Issue 6, 1509-1519) 20 buffers (10 mM sodium phosphate, 10 mM sodium borate, 10 mM sodium citrate, and 150 mM sodium chloride, in Distilled Water) of unique pH values ranging from 3.0-12.0 were prepared using 1M sodium hydroxide and 1M hydrochloric acid. 3.25 uL of LNPs (0.04 mg/mL mRNA, in PBS) were incubated with 2 μL of TNS reagent (0.3 mM, in DMSO) and 90 μL of buffer for each pH value (described above) in a 96-well black-walled plate. Each pH condition was performed in triplicate wells. The TNS fluorescence was measured using a Biotek Cytation Plate reader at excitation/emission wavelengths of 321/445 nm. The fluorescence values were then plotted and fit using a 4-parameter sigmoid curve. From the fit, the pH value yielding the half-maximal fluorescence was calculated and reported as the apparent LNP pKa value.
For pKa measurement, a […] assay was conducted according to those described in Sabnis et al., Molecular Therapy, 26(6):1509-19), which is incorporated herein by reference in its entirety. Briefly, 20 buffers (10 mM sodium phosphate, 10 mM sodium borate, 10 mM sodium citrate, and 150 mM sodium chloride, in distilled Water) of unique pH values ranging from 3.0-12.0 were prepared using 1M sodium hydroxide and 1M hydrochloric acid. 3.25 μL of a LNP composition (0.04 mg/mL mRNA, in PBS) was incubated with 2 μL of TNS reagent (0.3 mM, in DMSO) and 90 μL of buffer for each pH value (described above) in a 96-well black-walled plate. Each pH condition was performed in triplicate wells. The TNS fluorescence was measured using a Biotek Cytation Plate reader at excitation/emission wavelengths of 321/445 nm. The fluorescence values were then plotted and fit using a 4-parameter sigmoid curve. From the fit, the pH value yielding the half-maximal fluorescence was calculated and reported as the apparent LNP pKa value.

A further series has as its system Balb/c mice. The series can be described thus: In-vivo bioluminescent imaging after IV injection of Fluc mRNA LNP. To be noted: Example 5 LNP (DOPE 35:16:46.5:2.5), IV, 5 μg FLUC + 5 μg EPO; for Bioluminescence (IV) Liver / Bioluminescence (IV) Lung / Bioluminescence (IV) Spleen / Bioluminescence (IV) Whole Body: 4-6 hours post-dose; for Spleen: Liver Ratio: ratio of bioluminescence. On the procedure:
8-9 week old female Balb/c mice are utilized for bioluminescence-based ionizable lipid screening efforts. Mice are obtained from Jackson Laboratories (JAX Stock: 000651) and allowed to acclimate for one week prior to manipulations. Animals are placed under a heat lamp for a few minutes before introducing them to a restraining chamber. The tail is wiped with alcohol pads (Fisher Scientific) and 100 μL of a lipid nanoparticle composition descrbed above containing 10 ug total mRNA (5 ug Fluc+5 ug EPO) is injected intravenously using a 29 G insulin syringe (Covidien). Any resulting bleeding is stemmed using a sterile gauze pad (Fisher Scientific) and animals are placed back into their home cage. 4-6 hours post-dose, animals are injected with 200 μL of 15 mg/mL D-Luciferin (GoldBio) and placed in an isoflurane induction chamber set to deliver 2.5% isoflurane delivered at an oxygen flow rate of 1-2 liters per min. After 5 minutes of isoflurane exposure, mice are placed in set nose cones inside the IVIS Lumina LT imager (PerkinElmer). LivingImage software is utilized for imaging. Whole body bio-luminescence is captured at auto-exposure after which animals are removed from the IVIS and placed into a CO2 chamber for euthanasia. Cardiac puncture is performed on each animal after placing it in dorsal recumbency, and blood collection is performed using a 25 G insulin syringe (BD). Blood is collected in Lithium-Heparin coated tubes (Fisher Scientific) and immediately placed on ice. Once all blood samples are collected, tubes are spun at 2000 G for 10 minutes using a tabletop centrifuge and plasma is aliquoted into individual Eppendorf tubes (Fisher Scientific) and stored at −80 C for subsequent EPO quantification. EPO levels in plasma are determined using EPO MSD kit (Meso Scale Diagnostics).
8-9 week old female Balb/c mice were utilized for bioluminescence-based ionizable lipid screening efforts. Mice were obtained from Jackson Laboratories (JAX Stock: 000651) and allowed to acclimate for one week prior to manipulations. Animals were placed under a heat lamp for a few minutes before introducing them to a restraining chamber. The tail was wiped with alcohol pads (Fisher Scientific) and, for each LNP composition descrbed above, 100 μL of a lipid nanoparticle composition descrbed above containing 10 μg total mRNA (5 μg Fluc+5 μg EPO, 5 μg Fluc+5 μg Cre, or 5 μg EGFP) was injected intravenously using a 29 G insulin syringe (Covidien).
4-6 hours post-dose, animals were injected with 200 μL of 15 mg/mL D-Luciferin (GoldBio), and placed in set nose cones inside the IVIS Lumina LT imager (PerkinElmer). LivingImage software was utilized for imaging. Whole body bio-luminescence was captured at auto-exposure after which animals are removed from the IVIS and placed into a CO2 chamber for euthanasia. Cardiac puncture was performed on each animal after placing it in dorsal recumbency, and blood collection was performed using a 25 G insulin syringe (BD). Once all blood samples were collected, tubes are spun at 2000 G for 10 minutes using a tabletop centrifuge and plasma was aliquoted into individual Eppendorf tubes (Fisher Scientific) and stored at −80° C. for subsequent EPO quantification. EPO levels in plasma were determined using EPO MSD kit (Meso Scale Diagnostics).

With `CCCCCCCCCOC(=O)CCCCCCCN(CCCCCCCC(=O)OC(CCCCCCCC)CCCCCCCC)CCNC(=O)CCC(=O)NCCN(CCCCCCCC(=O)OCCCCCCCCC)CCCCCCCC(=O)OC(CCCCCCCC)CCCCCCCC` [Compound 2213, nonyl 8-[2-[[4-[2-[(8-nonoxy-8-oxo-octyl)-[8-(1-octylnonoxy)-8-oxo-octyl]amino]ethylamino]-4-oxo-butanoyl]amino]ethyl-[8-(1-octylnonoxy)-8-oxo-octyl]amino]octanoate], the “pKa (TNS)” value in series [1] stood at 6.54. Further, in the series on Balb/c mice, the “Bioluminescence (IV) Liver” value is on record as 2.2E+06, the “Bioluminescence (IV) Lung” value is recorded as 3.7E+03, the “Bioluminescence (IV) Spleen” value turned out to be 3.5E+05 and the “Bioluminescence (IV) Whole Body” value is reported as 1.0E+07. Also, the “Spleen: Liver Ratio” value in the series on Balb/c mice turned out to be 0.215.

`CCCCCCCCC(CCCCCCCC)OC(=O)CCCCCCCN(CCCCCCCC(=O)OC(CCCCCCCC)CCCCCCCC)CCNC(=O)CCC(=O)NCCN(CCCCCCCC(=O)OC(CCCCCCCC)CCCCCCCC)CCCCCCCC(=O)OC(CCCCCCCC)CCCCCCCC` [Compound 2275, 1-octylnonyl 8-[2-[[4-[2-[bis[8-(1-octylnonoxy)-8-oxo-octyl]amino]ethylamino]-4-oxo-butanoyl]amino]ethyl-[8-(1-octylnonoxy)-8-oxo-octyl]amino] octanoate]: in series [1], the “pKa (TNS)” value came to 6.03. In the series with Balb/c mice, the “Bioluminescence (IV) Liver” value is listed as 6.8E+07, the “Bioluminescence (IV) Lung” value is on record as 1.6E+04, the “Bioluminescence (IV) Spleen” value came out at 2.3E+05 and the “Bioluminescence (IV) Whole Body” value stood at 4.8E+08. For the same compound, the “Spleen: Liver Ratio” value in the series on Balb/c mice came out at 0.003.

`CCCCCC(CCCCC)CCCOC(=O)CCCCCCCN(CCCCCCCC(=O)OCCCC(CCCCC)CCCCC)CCNC(=O)CCC(=O)NCCN(CCCCCCCC(=O)OCCCC(CCCCC)CCCCC)CCCCCCCC(=O)OCCCC(CCCCC)CCCCC` [Compound 2332, bis(4-pentyl-nonyl)13,16-dioxo-9,20-bis(8-oxo-8-((4-pentylnon-yl)oxy)octyl)-9,12,17,20-tetraazaocta-cosanedioate]: the “pKa (TNS)” value in series [1] is given as 6.57. Besides, in the series with Balb/c mice, the “Bioluminescence (IV) Liver” value is 2.8E+07, the “Bioluminescence (IV) Spleen” value came out at 3.5E+05, the “Bioluminescence (IV) Whole Body” value turned out to be 9.8E+07 and the “Spleen: Liver Ratio” value was 0.045.

For the compound `CCCCCCCCCCC(CC)OC(=O)CCCCCN(CCCCCCCC(=O)OC(CCCCCCCC)CCCCCCCC)CCNC(=O)/C=C/C(=O)NCCN(CCCCCCCC(=O)OC(CCCCCCCC)CCCCCCCC)CCCCCC(=O)OC(CC)CCCCCCCCCC` (centres unmarked) [Compound 2378, 1-octylnonyl 8-[[6-(1-ethylundecoxy)-6-oxo-hexyl]-[2-[[(E)-4-[2-[[6-(1-ethylundecoxy)-6-oxo-hexyl]-[8-(1-octylnonoxy)-8-oxo-octyl]amino]ethylamino]-4-oxo-but-2-enoyl]amino]ethyl]amino]octanoate], the “pKa (TNS)” value in series [1] was 6.33. In addition, in the series with Balb/c mice, the “Bioluminescence (IV) Liver” value stood at 1.6E+07, the “Bioluminescence (IV) Lung” value came to 7.6E+03, the “Bioluminescence (IV) Spleen” value stood at 2.2E+05 and the “Bioluminescence (IV) Whole Body” value worked out at 1.8E+08. In addition, the “Spleen: Liver Ratio” value in the series with Balb/c mice turned out to be 0.007.

Take `CCCCCCCCC(CCCCCCCC)OC(=O)CCCCCCCN(CCCCCCCC(=O)OC(CCCCCCCC)CCCCCCCC)CCNC(=O)CCCC(=O)NCCN(CCCCCCCC(=O)OC(CCCCCCCC)CCCCCCCC)CCCCCCCC(=O)OC(CCCCCCCC)CCCCCCCC` [Compound 2320, 1-octylnonyl 8-[2-[[5-[2-[bis[8-(1-octylnonoxy)-8-oxo-octyl]amino]ethylamino]-5-oxo-pentanoyl]amino]ethyl-[8-(1-octylnonoxy)-8-oxo-octyl]amino]octanoate]: the “pKa (TNS)” value in series [1] was found to be 6.07. For the same compound, in the series on Balb/c mice, the “Bioluminescence (IV) Liver” value stood at 8.1E+07, the “Bioluminescence (IV) Lung” value worked out at 4.0E+03, the “Bioluminescence (IV) Spleen” value was found to be 4.4E+05 and the “Bioluminescence (IV) Whole Body” value amounted to 9.5E+08. The “Spleen: Liver Ratio” value in the series with Balb/c mice is on record as 0.007.

Values taken from US20250051263A1, “NOVEL IONIZABLE LIPIDS AND LIPID NANOPARTICLES AND METHODS OF USING THE SAME” (Sail Biomedicines, Inc., priority 2021, published 2025).
